What was measured:
Waterhemp [1] = assay: Test C postemergence: waterhemp; type: in vivo, Amaranthus rudis
Excerpt: (§1) Seeds of plant species selected from blackgrass (Alopecurus myosuroides), bromegrass, downy (downy bromegrass, Bromus tectorum), foxtail, green (green foxtail, Setaria viridis), ryegrass, Italian (Italian ryegrass, Lolium multiflorum), winter wheat (Triticum aestivum), wild oat (Avena fatua), galium (catchweed bedstraw, Galium aparine), bermudagrass (Cynodon dactylon), surinam grass (Brachiaria decumbens), cocklebur (common cocklebur, Xanthium strumarium), corn (Zea mays), large crabgrass (Digitaria sanguinalis), woolly cupgrass (Eriochloa villosa), foxtail, giant (giant foxtail, Setaria faberii), goosegrass (Eleusine indica), johnsongrass (Sorghum halepense), kochia (Kochia scoparia), lambsquarters (Chenopodium album), morningglory (Ipomoea coccinea), nightshade (eastern black nightshade, Solanum ptycanthum), nutsedge, yellow (yellow nutsedge, Cyperus esculentus), pigweed (Amaranthus retroflexus), ragweed (common ragweed, Ambrosia elation), soybean (Glycine max), common (oilseed) sunflower (Helianthus annuus), Russian thistle (Salsola kali) and velvetleaf (Abutilon theophrasti) were planted into a blend of loam soil and sand and treated preemergence with test chemicals formulated in a non-phytotoxic solvent mixture which included a surfactant.
(§2) At the same time, plants selected from these crop and weed species and also barley (winter barley, Hordeum vulgare), canarygrass (Phalaris minor), chickweed (common chickweed, Stellaria media) windgrass (Apera spica-venti) and deadnettle (henbit deadnettle, Lamium amplexicaule) were planted in pots containing Redi-Earth® planting medium (Scotts Company, 14111 Scottslawn Road, Marysville, Ohio 43041) comprising spaghnum peat moss, vermiculite, wetting agent and starter nutrients and treated with postemergence applications of test chemicals formulated in the same manner. Plants ranged in height from 2 to 18 cm (1- to 4-leaf stage) for postemergence treatments.
(§3) Treated plants and controls were maintained in a greenhouse for 13 to 15 days, after which time all species were compared to controls and visually evaluated. Plant response ratings, summarized in Table C, are based on a scale of 0 to 100 where 0 is no effect and 100 is complete control. A dash (-) response means no test result.

Oilseed Rape [2] = assay: Test C pre-/postemergence: oilseed rape; type: in vivo
Excerpt: as §1, §2, §3

Waterhemp [3] = assay: Test C pre-/postemergence: waterhemp; type: in vivo
Excerpt: as §1, §2, §3

Barnyardgrass [4] = assay: Test C postemergence: barnyardgrass; type: in vivo, Echinochloa crus-galli
Excerpt: as §2, §3

Oilseed Rape [5] = assay: Test C postemergence: oilseed rape; type: in vivo
Excerpt: as §2, §3

Waterhemp [6] = assay: Test C preemergence: waterhemp; type: in vivo; details: 62 g ai/ha, scale of 0 to 100, 0 is no effect, 100 is complete control
Excerpt: as §1, §3

Oilseed Rape [7] = assay: Test C preemergence: oilseed rape; type: in vivo; details: scale of 0 to 100, 0 is no effect, 100 is complete control
Excerpt: as §1, §3

Oilseed Rape [8] = assay: Test C postemergence: oilseed rape; type: in vivo, Brassica napus
Excerpt: as §1, §2, §3

[9] = system: barnyardgrass (Echinochloa crus-galli); assay: Test C pre-/postemergence: barnyardgrass; type: in vivo; details: Preemergence, 250 g ai/ha; scale 0 to 100, 0 no effect, 100 complete control
Excerpt: as §1, §2, §3

Barnyardgrass [10] = assay: Test C preemergence: barnyardgrass; type: in vivo, Echinochloa crus-galli
Excerpt: as §1, §3

[11] = 125 g ai/ha, scale 0 to 100, 0 no effect, 100 complete control
[12] = Preemergence, 250 g ai/ha, scale 0 to 100, 0 no effect, 100 complete control
[13] = 31 g ai/ha, scale 0 to 100 (0 no effect, 100 complete control)
[14] = 62 g ai/ha, scale 0 to 100 (0 no effect, 100 complete control)
[15] = 31 g ai/ha, scale of 0 to 100, 0 is no effect, 100 is complete control
[16] = 62 g ai/ha, scale of 0 to 100, 0 is no effect, 100 is complete control
[17] = 31 g ai/ha, scale 0 (no effect) to 100 (complete control)
[18] = 250 g ai/ha, scale 0 to 100 (0 no effect, 100 complete control)
[19] = Postemergence, 31 g ai/ha, scale 0 to 100 (0 no effect, 100 complete control)

SMILES | Plant response rating, Waterhemp (Waterhemp [1]; [11]) | Plant response rating, Oilseed Rape (Oilseed Rape [2]; [12]) | Plant response rating, Waterhemp (Waterhemp [3]; [12]) | Plant response rating, Barnyardgrass (Barnyardgrass [4]; [13]) | Plant response rating, Barnyardgrass (Barnyardgrass [4]; [14]) | Plant response rating, Barnyardgrass (Barnyardgrass [4]; 250 g ai/ha, scale 0 to 100) | Plant response rating, Oilseed Rape (Oilseed Rape [5]; [13]) | Plant response rating, Oilseed Rape (Oilseed Rape [5]; [14]) | Plant response rating, Oilseed Rape (Oilseed Rape [5]; 250 g ai/ha, scale 0 to 100) | Plant response rating, Waterhemp (Waterhemp [6]) | Plant response rating, Oilseed Rape (Oilseed Rape [7]; 31 g ai/ha) | Plant response rating, Oilseed Rape (Oilseed Rape [7]; 62 g ai/ha) | Plant response rating, Oilseed Rape (Oilseed Rape [8]; [11]) | Plant response rating, Barnyardgrass [9] | Plant response rating, Barnyardgrass (Barnyardgrass [10]; [15]) | Plant response rating, Barnyardgrass (Barnyardgrass [10]; [16]) | Plant response rating, Barnyardgrass (Barnyardgrass [10]; [11]) | Plant response rating, Barnyardgrass (Barnyardgrass [10]; [17]) | Plant response rating, Waterhemp (Waterhemp [1]; [18]) | Plant response rating, Oilseed Rape (Oilseed Rape [2]; [19]) | also measured
CCc1nn(-c2ccc(F)cc2)nc1Cc1ccnc(C(F)(F)F)c1 [Compound 154] | 98 | 100 | 100 | 15 | 25 | 40 | 80 | 90 | 95 | 100 | 5 | 90 | 95 | 100 | 45 | 90 | 90 | – | – | – | –
CCOCc1nn(-c2ccc(F)cc2)nc1Oc1ccnc(C(F)(F)F)c1 [Compound 163] | – | 95 | 100 | – | – | – | – | – | – | 100 | 0 | 50 | – | 100 | 10 | 25 | 75 | – | – | – | –
CCOc1nn(-c2ccc(C(F)(F)F)cc2)nc1Cc1ccnc(C(F)(F)F)c1 [Compound 164, 4-[[5-ethoxy-2-[4-(trifluoromethyl)phenyl]-2H-1,2,3-triazol-4-yl]methyl]-2-(trifluoromethyl)pyridine] | 65 | 30 | – | 5 | 10 | 10 | 5 | 5 | 25 | – | – | 5 | 20 | 70 | – | 15 | 25 | 5 | – | – | –
CCCc1nn(-c2ccc(F)cc2)nc1Oc1ccnc(C(F)(F)F)c1 [Compound 168] | 95 | 100 | – | 40 | 75 | 95 | – | 70 | – | – | – | 100 | 90 | 100 | – | 100 | 100 | 75 | 95 | 40 | Plant response rating, Waterhemp (Waterhemp [3]; [19]): 80; Plant response rating, Oilseed Rape (Oilseed Rape [8]; [18]): 95
CCc1nn(-c2ccc(C(F)(F)F)cc2)nc1Oc1ccnc(C(F)(F)F)c1 [Compound 169] | 80 | 100 | – | 15 | 25 | 85 | – | 40 | – | – | – | 98 | 40 | 100 | – | 80 | 98 | 40 | 95 | 30 | Plant response rating, Waterhemp (Waterhemp [3]; [19]): 75; Plant response rating, Oilseed Rape (Oilseed Rape [8]; [18]): 60
